Experimental findings from US11780830B2, “Triazolone derivatives or salts thereof and pharmaceutical compositions comprising the same” (YUHAN CORPORATION, priority 2018, dated 2023) are described below.

Holding throughout (type): biochemical
The target in one assay is T1, recombinant human VAP-1 (Homo sapiens, UniProt Q16853).
T1 construct: purchased R&D systems
T1 sequence (Q16853 1-763): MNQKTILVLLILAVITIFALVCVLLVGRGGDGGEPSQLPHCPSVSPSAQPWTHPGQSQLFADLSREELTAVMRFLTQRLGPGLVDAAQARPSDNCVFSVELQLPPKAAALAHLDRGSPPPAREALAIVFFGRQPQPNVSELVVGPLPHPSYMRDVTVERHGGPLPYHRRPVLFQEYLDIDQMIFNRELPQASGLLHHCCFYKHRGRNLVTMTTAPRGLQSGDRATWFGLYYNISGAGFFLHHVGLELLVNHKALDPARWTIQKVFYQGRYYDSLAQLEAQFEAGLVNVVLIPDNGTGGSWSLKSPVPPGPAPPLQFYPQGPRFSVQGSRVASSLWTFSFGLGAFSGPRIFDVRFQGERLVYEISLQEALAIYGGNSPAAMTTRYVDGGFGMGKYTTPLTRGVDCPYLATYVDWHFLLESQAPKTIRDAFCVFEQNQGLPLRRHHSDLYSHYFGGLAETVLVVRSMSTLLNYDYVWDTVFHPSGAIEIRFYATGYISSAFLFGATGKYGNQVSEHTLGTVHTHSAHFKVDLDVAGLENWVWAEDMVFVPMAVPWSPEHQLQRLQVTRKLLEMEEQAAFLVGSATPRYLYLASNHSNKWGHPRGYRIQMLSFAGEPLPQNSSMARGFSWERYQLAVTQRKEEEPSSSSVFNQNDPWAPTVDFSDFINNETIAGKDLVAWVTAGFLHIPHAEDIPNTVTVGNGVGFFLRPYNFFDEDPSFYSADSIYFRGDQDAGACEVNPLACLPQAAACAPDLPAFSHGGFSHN
Put plainly: Activity on recombinant human VAP-1, HRP-coupled Amplex Red hydrogen peroxide assay. The conditions noted are these: substrate 1 mM benzylamine; compound incubated with enzyme at 37° C. for 30 minutes; pH 7.4; read-out: Inhibitory Activity (IC50, nM) human VAP-1. The method in brief:
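Compounds were preincubated with purified enzyme in 50 mM sodium phosphate pH 7.4 at 37 °C for 30 min, then 200 uM Amplex Red, 1 mM benzylamine and 1 U/mL HRP were added. Resorufin fluorescence (ex 544/em 590 nm) was followed over 1-2 h; IC50 came from 4-parameter fits of signal-rate inhibition.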

Assay [1] addresses T2, recombinant human MAO-A (monoamine oxidase-A) (Homo sapiens, UniProt P21397).
T2 construct: purchased Sigma-Aldrich
T2 sequence (P21397 1-527): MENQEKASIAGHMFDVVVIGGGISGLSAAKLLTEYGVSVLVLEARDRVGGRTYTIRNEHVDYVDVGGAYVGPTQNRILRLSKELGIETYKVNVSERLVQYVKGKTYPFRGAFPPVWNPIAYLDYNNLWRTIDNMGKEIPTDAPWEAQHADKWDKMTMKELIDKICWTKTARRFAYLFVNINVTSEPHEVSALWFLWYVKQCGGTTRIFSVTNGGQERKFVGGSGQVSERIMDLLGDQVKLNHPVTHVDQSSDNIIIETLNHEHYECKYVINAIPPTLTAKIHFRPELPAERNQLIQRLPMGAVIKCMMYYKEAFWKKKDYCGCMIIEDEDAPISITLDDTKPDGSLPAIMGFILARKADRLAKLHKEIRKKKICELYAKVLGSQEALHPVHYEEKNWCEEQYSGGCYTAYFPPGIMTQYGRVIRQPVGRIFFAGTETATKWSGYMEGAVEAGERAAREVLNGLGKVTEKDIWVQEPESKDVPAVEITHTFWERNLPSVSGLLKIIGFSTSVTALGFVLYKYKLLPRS
The experiment in a line: Activity on recombinant human MAO-A, method similar to the VAP-1 assay. As to conditions: substrate 0.5 mM tyramine; read-out: Inhibitory Activity (IC50, nM) MAO-A. A digest of the protocol: (§1)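 8-point, 1:3 dose-response, four-parameter logistic IC50 from reduction in fluorescence rate versus DMSO control. HRP/Amplex Red detection of H2O2 (ex 544, em 590 nm) after 30 min, 37 °C compound–enzyme preincubation in pH 7.4 phosphate buffer. MAO-A substrate: 0.5 mM tyramine; MAO-B: 1 mM benzylamine.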

For assay [2], the target named is T3, recombinant human MAO-B (monoamine oxidase-B) (Homo sapiens, UniProt P27338).
T3 construct: purchased Sigma-Aldrich
T3 sequence (P27338 1-520): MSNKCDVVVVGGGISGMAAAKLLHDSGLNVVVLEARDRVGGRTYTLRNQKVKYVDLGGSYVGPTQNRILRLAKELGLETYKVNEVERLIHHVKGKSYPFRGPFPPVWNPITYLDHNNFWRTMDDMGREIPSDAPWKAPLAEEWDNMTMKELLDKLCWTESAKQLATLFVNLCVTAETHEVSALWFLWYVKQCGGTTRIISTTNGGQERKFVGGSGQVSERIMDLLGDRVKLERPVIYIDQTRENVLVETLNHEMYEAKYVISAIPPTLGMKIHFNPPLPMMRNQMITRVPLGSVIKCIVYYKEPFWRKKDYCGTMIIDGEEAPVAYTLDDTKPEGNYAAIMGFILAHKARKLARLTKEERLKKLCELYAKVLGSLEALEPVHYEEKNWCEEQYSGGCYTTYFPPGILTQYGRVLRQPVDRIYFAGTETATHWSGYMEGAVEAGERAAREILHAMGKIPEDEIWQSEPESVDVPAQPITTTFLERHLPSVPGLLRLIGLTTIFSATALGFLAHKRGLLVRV
Put plainly: Activity on recombinant human MAO-B, method similar to the VAP-1 assay. As to conditions: substrate 1 mM benzylamine; read-out: Inhibitory Activity (IC50, nM) MAO-B. The method in brief: as §1

Assay [3] addresses T4, recombinant human DAO (diamine oxidase) (Homo sapiens, UniProt P19801).
T4 construct: purchased R&D systems
T4 sequence (P19801 20-751): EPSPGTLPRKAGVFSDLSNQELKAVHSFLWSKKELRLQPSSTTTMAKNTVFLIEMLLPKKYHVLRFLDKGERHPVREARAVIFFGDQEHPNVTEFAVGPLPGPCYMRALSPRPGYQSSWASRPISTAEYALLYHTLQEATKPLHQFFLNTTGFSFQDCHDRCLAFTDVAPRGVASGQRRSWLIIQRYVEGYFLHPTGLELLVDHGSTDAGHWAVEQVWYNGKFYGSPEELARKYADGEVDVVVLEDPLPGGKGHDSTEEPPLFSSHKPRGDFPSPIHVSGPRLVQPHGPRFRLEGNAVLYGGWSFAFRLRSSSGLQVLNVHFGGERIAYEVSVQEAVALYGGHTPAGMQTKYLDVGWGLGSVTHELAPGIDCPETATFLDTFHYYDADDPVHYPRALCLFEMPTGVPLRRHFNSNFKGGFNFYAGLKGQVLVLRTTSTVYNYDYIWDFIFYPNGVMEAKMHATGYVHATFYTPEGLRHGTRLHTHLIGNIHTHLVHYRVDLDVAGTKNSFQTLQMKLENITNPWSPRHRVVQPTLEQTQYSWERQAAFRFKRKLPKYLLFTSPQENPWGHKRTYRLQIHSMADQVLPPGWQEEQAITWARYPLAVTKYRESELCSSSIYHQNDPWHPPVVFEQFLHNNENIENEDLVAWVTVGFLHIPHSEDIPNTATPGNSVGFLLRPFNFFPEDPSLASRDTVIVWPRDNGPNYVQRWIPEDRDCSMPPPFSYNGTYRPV
The experiment in a line: Activity on recombinant human DAO, method similar to the VAP-1 assay. The conditions noted are these: substrate 1 mM putrescine; read-out: Inhibitory Activity (IC50, nM) DAO. The method in brief:
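Inhibition of recombinant human diamine oxidase (DAO, R&D systems) was assessed by the same approach as the VAP-1 assay, using 1 mM putrescine as substrate. Hydrogen peroxide formed was detected through an HRP-coupled Amplex Red reaction yielding fluorescent resorufin, read at 544 nm excitation and 590 nm emission. IC50 values came from four-parameter logistic fitting in GraphPad Prism.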

Where a name gives a salt, the structure may show the parent alone. A value given as a limit tells only on which side of the number the result lay.

On to `Cc1c(-c2ccc(Cn3cnn(C/C(=C/F)CN)c3=O)s2)ccc2c1NC(=O)CC2` [Example 88, 7-[5-[[1-[(E)-2-(aminomethyl)-3-fluoro-allyl]-5-oxo-1,2,4-triazol-4-yl]methyl]-2-thienyl]-8-methyl-3,4-dihydro-1H-quinolin-2-one], for which the IC50 on recombinant human VAP-1 is 0.3 nM; in assay [1], > 100000 nM; in assay [2], 2400 nM; in assay [3], 897 nM.
As for `COC(=O)c1ccc(-c2ccc(Cn3cnn(C/C(=C/F)CN)c3=O)s2)cc1F` [Example 12, methyl 4-[5-(1-[(2E)-2-(aminomethyl)-3-fluoroprop-2-en-1-yl]-5-oxo-1,5-dihydro-4H-1,2,4-triazol-4-ylmethyl)thiophen-2-yl]-2-fluorobenzoate hydrochloride], the IC50 at recombinant human VAP-1 was 1.8 nM; in assay [1], > 100000 nM; in assay [2], 110 nM; in assay [3] it was 200 nM.
Taken in the same sequence, the figures for `NC/C(=C\F)Cn1ncn(Cc2ccc(-c3ccc(CN4CCOCC4)nc3)s2)c1=O` [Example 145, 2-[(2E)-2-(aminomethyl)-3-fluoroprop-2-en-1-yl]-4-({5-[6-(morpholin-4-ylmethyl)pyridin-3-yl]thiophen-2-yl}methyl)-2,4-dihydro-3H-1,2,4-triazol-3-one] were 4.4 nM, > 100000 nM, > 100000 nM and 490 nM.
In the case of `NC/C(=C\F)Cn1ncn(Cc2cc3cc(-c4ccc(N5CCNCC5)cc4)ccc3s2)c1=O` [Example 213, 2-[(2E)-2-(aminomethyl)-3-fluoroprop-2-en-1-yl]-4-({5-[4-(piperazin-1-yl)phenyl]-1-benzothiophen-2-yl}methyl)-2,4-dihydro-3H-1,2,4-triazol-3-one], the IC50 is 3 nM at recombinant human VAP-1, > 100000 nM in assay [1], 5200 nM in assay [2] and 1500 nM in assay [3].
In the case of `COCCOc1ccc(-c2ccc(Cn3cnn(C/C(=C/F)CN)c3=O)s2)cc1` [Example 19, 2-[(2E)-2-(aminomethyl)-3-fluoroprop-2-en-1-yl]-4-(5-[4-(2-methoxyethoxy)phenyl]thiophen-2-ylmethyl)-2,4-dihydro-3H-1,2,4-triazol-3-one hydrochloride], the 50% inhibitory concentration (IC50) at recombinant human VAP-1 is 4.6 nM; in assay [1], > 100000 nM; in assay [2], 1100 nM; in assay [3] it was 1800 nM.
For `NC/C(=C\F)Cn1ncn(Cc2ccc(-c3cc(F)c4c(c3)NC(=O)CO4)s2)c1=O` [Example 94, 6-[5-[[1-[(E)-2-(aminomethyl)-3-fluoro-allyl]-5-oxo-1,2,4-triazol-4-yl]methyl]-2-thienyl]-8-fluoro-4H-1,4-benzoxazin-3-one hydrochloride], the IC50 was found to be 0.3 nM on recombinant human VAP-1, 11000 nM in assay [1], 1700 nM in assay [2] and 160 nM in assay [3].
Regarding `Cn1cc(-c2ccc(Cn3cnn(C/C(=C/F)CN)c3=O)s2)ccc1=O` [Example 187, 5-[5-({1-[(2E)-2-(aminomethyl)-3-fluoroprop-2-en-1-yl]-5-oxo-1,5-dihydro-4H-1,2,4-triazol-4-yl}methyl)thiophen-2-yl]-1-methylpyridin-2(1H)-one], the half-maximal inhibitory concentration (IC50) was 1.3 nM at recombinant human VAP-1, > 100000 nM in assay [1], 1600 nM in assay [2] and 1800 nM in assay [3].
With `CNS(=O)(=O)c1cccc(-c2ccc(Cn3cnn(C/C(=C/F)CN)c3=O)s2)c1` [Example 8, 3-[5-(1-[(2E)-2-(aminomethyl)-3-fluoroprop-2-en-1-yl]-5-oxo-1,5-dihydro-4H-1,2,4-triazol-4-ylmethyl)thiophen-2-yl]-N-methylbenzenesulfonamide hydrochloride], the IC50 on recombinant human VAP-1 was 1.2 nM; in assay [1], > 100000 nM; in assay [2] it was 210 nM; in assay [3], 520 nM.
